We go through seven molecules from patent US10213433B2 (AbbVie Inc., priority 2010, dated 2019).

Chain of Bcl-2 protein (P10415 whole entry): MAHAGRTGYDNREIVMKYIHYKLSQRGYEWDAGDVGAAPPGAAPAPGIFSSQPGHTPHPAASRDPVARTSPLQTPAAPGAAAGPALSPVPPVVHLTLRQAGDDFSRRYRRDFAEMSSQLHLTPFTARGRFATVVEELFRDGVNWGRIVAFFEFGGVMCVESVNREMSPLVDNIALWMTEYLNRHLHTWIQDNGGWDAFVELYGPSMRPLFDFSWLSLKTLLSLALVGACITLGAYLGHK

This test addresses Bcl-2 protein (Homo sapiens (Human), UniProt P10415). The test can be described thus: Bcl-2 binding TR-FRET (Time-Resolved Fluorescence-Resonance-Energy-Transfer) assay. The conditions noted are these: inhibition constant for binding to Bcl-2 protein. The source says:
The smaller the Ki value, the greater is the binding affinity.
For `CC1(C)CCC(CN2CCN(c3ccc(C(=O)NS(=O)(=O)c4ccc(NC[C@@H]5CC[C@@H](O)C5)c([N+](=O)[O-])c4)c(Oc4cnc5[nH]ccc5c4)c3)CC2)=C(c2ccc(Cl)cc2)C1` [Compound 156, 4-(4-{[2-(4-chlorophenyl)-4,4-dimethylcyclohex-1-en-1-yl]methyl}piperazin-1-yl)-N-{[4-({[(1R,3R)-3-hydroxycyclopentyl]methyl}amino)-3-nitrophenyl]sulfonyl}-2-(1H-pyrrolo[2,3-b]pyridin-5-yloxy)benzamide], the Ki is less than 0.01 nM. Consider `CC1(C)CCC(CN2CCN(c3ccc(C(=O)NS(=O)(=O)c4ccc(NC[C@H]5CC[C@H](O)C5)c([N+](=O)[O-])c4)c(Oc4cnc5[nH]ccc5c4)c3)CC2)=C(c2ccc(Cl)cc2)C1` [Compound 157, 4-(4-{[2-(4-chlorophenyl)-4,4-dimethylcyclohex-1-en-1-yl]methyl}piperazin-1-yl)-N-{[4-({[(1S,3S)-3-hydroxycyclopentyl]methyl}amino)-3-nitrophenyl]sulfonyl}-2-(1H-pyrrolo[2,3-b]pyridin-5-yloxy)benzamide], for which the Ki was less than 0.01 nM. On to `CC1(C)CCC(CN2CCN(c3ccc(C(=O)NS(=O)(=O)c4ccc(NC[C@H]5CC[C@@H](O)C5)c([N+](=O)[O-])c4)c(Oc4cnc5[nH]ccc5c4)c3)CC2)=C(c2ccc(Cl)cc2)C1` [Compound 158, 4-(4-{[2-(4-chlorophenyl)-4,4-dimethylcyclohex-1-en-1-yl]methyl}piperazin-1-yl)-N-{[4-({[(1S,3R)-3-hydroxycyclopentyl]methyl}amino)-3-nitrophenyl]sulfonyl}-2-(1H-pyrrolo[2,3-b]pyridin-5-yloxy)benzamide], for which the Ki is less than 0.01 nM. `CC1(C)CCC(CN2CCN(c3ccc(C(=O)NS(=O)(=O)c4ccc(NC[C@@H]5CC[C@H](O)C5)c([N+](=O)[O-])c4)c(Oc4cnc5[nH]ccc5c4)c3)CC2)=C(c2ccc(Cl)cc2)C1` [Compound 159, 4-(4-{[2-(4-chlorophenyl)-4,4-dimethylcyclohex-1-en-1-yl]methyl}piperazin-1-yl)-N-{[4-({[(1R,3S)-3-hydroxycyclopentyl]methyl}amino)-3-nitrophenyl]sulfonyl}-2-(1H-pyrrolo[2,3-b]pyridin-5-yloxy)benzamide]: the Ki was less than 0.01 nM.

Turning to `CC1(C)CCC(CN2CCN(c3ccc(C(=O)NS(=O)(=O)c4ccc(N[C@H]5CCCNC5=O)c([N+](=O)[O-])c4)c(Oc4cnc5[nH]ccc5c4)c3)CC2)=C(c2ccc(Cl)cc2)C1` [Compound 160, 4-(4-{[2-(4-chlorophenyl)-4,4-dimethylcyclohex-1-en-1-yl]methyl}piperazin-1-yl)-N-[(3-nitro-4-{[(3S)-2-oxopiperidin-3-yl]amino}phenyl)sulfonyl]-2-(1H-pyrrolo[2,3-b]pyridin-5-yloxy)benzamide], the Ki was less than 0.01 nM.

Take `CC1(C)CCC(CN2CCN(c3ccc(C(=O)NS(=O)(=O)c4ccc(NCC5CN(C(CF)CF)C5)c([N+](=O)[O-])c4)c(Oc4cnc5[nH]ccc5c4)c3)CC2)=C(c2ccc(Cl)cc2)C1` [Compound 161, 4-(4-{[2-(4-chlorophenyl)-4,4-dimethylcyclohex-1-en-1-yl]methyl}piperazin-1-yl)-N-({4-[({1-[2-fluoro-1-(fluoromethyl)ethyl]azetidin-3-yl}methyl)amino]-3-nitrophenyl}sulfonyl)-2-(1H-pyrrolo[2,3-b]pyridin-5-yloxy)benzamide]: the Ki is less than 0.01 nM. As to `CC1(C)CCC(CN2CCN(c3ccc(C(=O)NS(=O)(=O)c4ccc(NCC5CN(C6COC6)C5)c([N+](=O)[O-])c4)c(Oc4cnc5[nH]ccc5c4)c3)CC2)=C(c2ccc(Cl)cc2)C1` [Compound 162, 4-(4-{[2-(4-chlorophenyl)-4,4-dimethylcyclohex-1-en-1-yl]methyl}piperazin-1-yl)-N-[(3-nitro-4-{[(1-oxetan-3-ylazetidin-3-yl)methyl]amino}phenyl)sulfonyl]-2-(1H-pyrrolo[2,3-b]pyridin-5-yloxy)benzamide], the Ki is less than 0.01 nM.
